Some results are limits rather than exact numbers.

T1 sequence (Q93009 208-1102): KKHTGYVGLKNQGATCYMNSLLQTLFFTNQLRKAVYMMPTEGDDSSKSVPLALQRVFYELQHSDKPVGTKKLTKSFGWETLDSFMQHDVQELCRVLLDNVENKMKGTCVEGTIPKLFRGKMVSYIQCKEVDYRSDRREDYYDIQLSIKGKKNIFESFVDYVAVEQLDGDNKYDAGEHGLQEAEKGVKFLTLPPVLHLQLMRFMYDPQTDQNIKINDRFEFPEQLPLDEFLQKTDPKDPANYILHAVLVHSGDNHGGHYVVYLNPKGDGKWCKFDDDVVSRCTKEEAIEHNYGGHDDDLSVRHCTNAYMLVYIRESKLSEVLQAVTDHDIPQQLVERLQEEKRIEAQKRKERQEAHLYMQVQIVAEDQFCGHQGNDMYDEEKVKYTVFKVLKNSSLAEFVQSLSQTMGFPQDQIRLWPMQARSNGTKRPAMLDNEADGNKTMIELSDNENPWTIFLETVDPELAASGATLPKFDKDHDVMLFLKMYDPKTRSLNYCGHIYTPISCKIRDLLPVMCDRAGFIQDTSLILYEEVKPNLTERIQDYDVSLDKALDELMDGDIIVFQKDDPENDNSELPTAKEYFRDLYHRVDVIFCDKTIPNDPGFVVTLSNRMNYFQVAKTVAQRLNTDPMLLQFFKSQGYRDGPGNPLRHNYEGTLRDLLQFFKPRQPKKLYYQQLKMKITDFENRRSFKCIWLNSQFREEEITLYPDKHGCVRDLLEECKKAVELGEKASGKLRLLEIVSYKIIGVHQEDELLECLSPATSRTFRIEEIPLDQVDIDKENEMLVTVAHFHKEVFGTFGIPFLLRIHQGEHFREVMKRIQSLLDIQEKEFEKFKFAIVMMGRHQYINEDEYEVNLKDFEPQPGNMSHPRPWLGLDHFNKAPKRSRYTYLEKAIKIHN

The first assay concerns the target T1, USP7 (Homo sapiens (Human), UniProt Q93009). As to the kind of experiment: USP7 Assay B (Ubitquin-Rhodamine110 Assay). It is filed as biochemical. The settings on record: Ub-Rh110 substrate 25 nM.
For the compound `O=C(c1ccc(Cn2nnc3ccccc32)cc1)N1CCC(O)(Cn2cnn3cccc3c2=O)CC1` [Compound I-68, 3-((1-(4-((1H-benzo[d][1,2,3]triazol-1-yl)methyl)benzoyl)-4-hydroxypiperidin-4-yl)methyl)pyrrolo[2,1-f][1,2,4]triazin-4(3H)-one], the IC50 lay in the range of 1 to 10 µM.

Consider `N#Cc1ccc(NC(=O)Nc2cc3c(=O)n(CC4(O)CCN(C(=O)C5CC5)CC4)cnn3c2)cc1` [Compound I-100, 1-(4-cyanophenyl)-3-(3-((1-(cyclopropanecarbonyl)-4-hydroxypiperidin-4-yl)methyl)-4-oxo-3,4-dihydropyrrolo[2,1-f][1,2,4]triazin-6-yl)urea], for which the IC50 is above 10 µM.

`Cc1ccc(-c2cccc(C(=O)N3CCC(O)(Cn4cnn5cccc5c4=O)CC3)c2)cc1C` [Compound I-17, 3-((1-(3′,4′-dimethyl-[1,1′-biphenyl]-3-carbonyl)-4-hydroxypiperidin-4-yl)methyl)pyrrolo[2,1-f][1,2,4]triazin-4(3H)-one]: the IC50 was above 10 µM.

Consider `O=C(c1ccc(CN2CCCCC2)cc1Cl)N1CCC(O)(Cn2cnn3cccc3c2=O)CC1` [Compound I-75, 3-((1-(2-chloro-4-(piperidin-1-ylmethyl)benzoyl)-4-hydroxypiperidin-4-yl)methyl)pyrrolo[2,1-f][1,2,4]triazin-4(3H)-one], for which the IC50 was above 10 µM.

`Cc1cccc(NC(=O)Nc2cc3c(=O)n(CC4(O)CCN(C(=O)C5CC5)CC4)cnn3c2)c1` [Compound I-86, 1-(3-((1-(cyclopropanecarbonyl)-4-hydroxypiperidin-4-yl)methyl)-4-oxo-3,4-dihydropyrrolo[2,1-f][1,2,4]triazin-6-yl)-3-(m-tolyl)urea] showed an IC50 above 10 µM.

As to `O=C(c1cccc(-c2ccc3scnc3c2)c1)N1CCC(O)(Cn2cnn3cccc3c2=O)CC1` [Compound I-23, 3-((1-(3-(benzo[d]thiazol-5-yl)benzoyl)-4-hydroxypiperidin-4-yl)methyl)pyrrolo[2,1-f][1,2,4]triazin-4(3H)-one], the IC50 is 1 to 10 µM.

Compound `O=C(c1cccc(-c2ccc3ncccc3c2)c1)N1CCC(O)(Cn2cnn3cccc3c2=O)CC1` [Compound I-21, 3-((4-hydroxy-1-(3-(quinolin-6-yl)benzoyl)piperidin-4-yl)methyl)pyrrolo[2,1-f][1,2,4]triazin-4(3H)-one] had an IC50 of 1 to 10 µM.

Regarding `Cn1c(-c2cccc(C(=O)N3CCC(O)(Cn4cnn5cccc5c4=O)CC3)c2)cc2ccccc21` [Compound I-25, 3-((4-hydroxy-1-(3-(1-methyl-1H-indol-2-yl)benzoyl)piperidin-4-yl)methyl)pyrrolo[2,1-f][1,2,4]triazin-4(3H)-one], the IC50 fell in the range of 0.2 to 1 µM.

The compound `O=C(c1cccc(-c2cccc(Cl)c2)c1)N1CCC(O)(Cn2cnn3cccc3c2=O)CC1` [Compound I-13, 3-((1-(3′-chloro-[1,1′-biphenyl]-3-carbonyl)-4-hydroxypiperidin-4-yl)methyl)pyrrolo[2,1-f][1,2,4]triazin-4(3H)-one] showed an IC50 of 1 to 10 µM.

`Cc1cc(-c2cccc(C(=O)N3CCC(O)(Cn4cnn5cccc5c4=O)CC3)c2)ccc1F` [Compound I-9, 3-((1-(4′-fluoro-3′-methyl-[1,1′-biphenyl]-3-carbonyl)-4-hydroxypiperidin-4-yl)methyl)pyrrolo[2,1-f][1,2,4]triazin-4(3H)-one] gave an IC50 above 10 µM.

`COc1cccc(NC(=O)Nc2cc3c(=O)n(CC4(O)CCN(C(=O)C5CC5)CC4)cnn3c2)c1` [Compound I-101, 1-(3-((1-(cyclopropanecarbonyl)-4-hydroxypiperidin-4-yl)methyl)-4-oxo-3,4-dihydropyrrolo[2,1-f][1,2,4]triazin-6-yl)-3-(3-methoxyphenyl)urea] yielded an IC50 above 10 µM.

In turn, `COc1cc(OC)cc(-c2ccc(C(=O)N3CCC(O)(Cn4cnn5cccc5c4=O)CC3)cc2)c1` [Compound I-44, 3-((1-(3′,5′-dimethoxy-[1,1′-biphenyl]-4-carbonyl)-4-hydroxypiperidin-4-yl)methyl)pyrrolo[2,1-f][1,2,4]triazin-4(3H)-one] showed an IC50 above 10 µM.

Compound `O=C(c1ccccc1-c1ccsc1)N1CCC(O)(Cn2cnn3cccc3c2=O)CC1` [Compound I-3, 3-((4-hydroxy-1-(2-(thiophen-3-yl)benzoyl)piperidin-4-yl)methyl)pyrrolo[2,1-f][1,2,4]triazin-4(3H)-one] showed an IC50 above 10 µM.

For another assay, the target named is T1, USP7. In words: USP7 Assay A (Ubitquin-Rhodamine110 Assay). The format is biochemical. To be noted: Ub-Rh110 substrate 25 nM. The procedure: Each assay was performed in a final volume of 15 μL in assay buffer containing 20 mM Tris-HCl (pH 8.0, (1M Tris-HCl, pH 8.0 solution; Corning 46-031-CM)), 1 mM GSH (L-Glutathione reduced: Sigma #G4251), 0.03% BGG ([…], Sigma, #G7516-25G), and 0.01% Triton X-100 (Sigma, #T9284-10L). Nanoliter quantities of either an 8-point or 10-point, 3-fold serial dilution in DMSO was pre-dispensed into assay plates (Perkin Elmer, ProxiPlate-384 F Plus, #6008269) for a final test concentration range of either 25 μM to 11 nM or 25 μM to 1.3 nM, respectively. The final concentration of the enzyme (USP7, construct USP7 (208-1102) 6*His, Viva Biotech) in the assay was […]. […] 5 μL of 2× enzyme was added to assay plates (pre-stamped with compound) preincubated with USP7 for 30 minutes and then 5 μL of 2×Ub-Rh110 was added to assay plates. Plates were incubated stacked for 20 minutes at room temperature before 5 μL of stop solution (final concentration of 10 mM citric acid in assay buffer (Sigma, #251275-500G)). Fluorescence was read on the Envision (Excitation at 485 nm and Emission at 535 nm; Perkin Elmer) or on the PheraSTAR (Excitation at 485 nm and Emission at 535 nm; BMG Labtech).
Data from USP7 Assays A and B were reported as percent inhibition (inh) compared with control wells based on the following equation: % inh=1−((FLU−AveLow)/(AveHigh−AveLow)) where FLU=measured Fluorescence (See Tables 2 and 3). AveLow=average Fluorescence of no enzyme control (n=16). AveHigh=average Fluorescence of DMSO control (n=16). IC50 values were determined by curve fitting of the standard 4 parameter logistic fitting algorithm included in the Activity Base software package: IDBS XE Designer Model205. Data is fitted using the Levenburg Marquardt algorithm. IC50 data from USP7 Assays A and B for the compounds of the invention can be found in Tables 2 and 3.
With `O=C(c1ccc(F)cc1)N1CCC(O)(Cn2cnn3c(-c4ccc(F)cc4)ncc3c2=O)CC1` [Compound I-116, 3-((1-(4-fluorobenzoyl)-4-hydroxypiperidin-4-yl)methyl)-7-(4-fluorophenyl)imidazo[5,1-f][1,2,4]triazin-4(3H)-one], the IC50 was above 10 µM.

Compound `Cc1ccc(C(=O)N2CCC(O)(Cn3cnn4c(-c5ccc(F)cc5)ncc4c3=O)CC2)cc1` [Compound I-124, 7-(4-fluorophenyl)-3-((4-hydroxy-1-(4-methylbenzoyl)piperidin-4-yl)methyl)imidazo[5,1-f][1,2,4]triazin-4(3H)-one] yielded a half-inhibitory concentration (IC50) above 10 µM.

The compound `Cc1ccc(-c2ncc3c(=O)n(CC4(O)CCN(C(=O)CC(C)n5cccn5)CC4)cnn23)cc1` (racemic) [Compound I-119, 3-([4-Hydroxy-1-[3-(1H-pyrazol-1-yl)butanoyl]piperidin-4-yl]methyl)-7-(4-methylphenyl)-3H,4H-imidazo[4,3-f][1,2,4]triazin-4-one] showed an IC50 of 1 to 10 µM.

`O=C(c1cnc(C2CC2)o1)N1CCC(O)(Cn2cnn3c(-c4ccc(F)cc4)ncc3c2=O)CC1` [Compound I-122, 3-((1-(2-cyclopropyloxazole-5-carbonyl)-4-hydroxypiperidin-4-yl)methyl)-7-(4-fluorophenyl)imidazo[5,1-f][1,2,4]triazin-4(3H)-one] yielded an IC50 of 1 to 10 µM.

Compound `Cc1ccc(C(=O)N2CCC(O)(Cn3cnn4c(-c5ccc(F)cc5)ncc4c3=O)CC2)cc1F` [Compound I-125, 3-((1-(3-fluoro-4-methylbenzoyl)-4-hydroxypiperidin-4-yl)methyl)-7-(4-fluorophenyl)imidazo[5,1-f][1,2,4]triazin-4(3H)-one] gave an IC50 above 10 µM.

Compound `Cc1ccc(-c2ncc3c(=O)n(CC4(O)CCN(C(=O)C[C@H](C)n5cccn5)CC4)cnn23)cc1` [Compound I-120, (S)-3-((1-(3-(1H-pyrazol-1-yl)butanoyl)-4-hydroxypiperidin-4-yl)methyl)-7-(p-tolyl)imidazo[5,1-f][1,2,4]triazin-4(3H)-one] had an IC50 of 1 to 10 µM.

Consider `O=C(c1ccc(-n2cccn2)cc1)N1CCC(O)(Cn2cnn3c(-c4ccc(F)cc4)ncc3c2=O)CC1` [Compound I-123, 3-((1-(4-(1H-pyrazol-1-yl)benzoyl)-4-hydroxypiperidin-4-yl)methyl)-7-(4-fluorophenyl)imidazo[5,1-f][1,2,4]triazin-4(3H)-one], for which the IC50 was in the range of 1 to 10 µM.

For the compound `Cc1ccc(-c2ncc3c(=O)n(CC4(O)CCN(C(=O)C[C@@H](C)n5cccn5)CC4)cnn23)cc1` [Compound I-121, (R)-3-((1-(3-(1H-pyrazol-1-yl)butanoyl)-4-hydroxypiperidin-4-yl)methyl)-7-(p-tolyl)imidazo[5,1-f][1,2,4]triazin-4(3H)-one], the IC50 was above 10 µM.

For `Cc1ccc(-c2ncc3c(=O)n(CC4(O)CCN(C(=O)c5ccc(F)cc5)CC4)cnn23)cc1` [Compound I-117, 3-((1-(4-fluorobenzoyl)-4-hydroxypiperidin-4-yl)methyl)-7-p-tolylimidazo[1,5-f][1,2,4]triazin-4(3H)-one], the half-maximal inhibitory concentration (IC50) was 1 to 10 µM.
